Test results taken from patent US20090233999A1, “COMPOSITIONS AND THERAPEUTIC METHODS INVOLVING ISOFLAVONES AND ANALOGUES THEREOF” (NOVOGEN RESEARCH PTY LTD, priority 1999, published 2009).

What was measured:
A10 = test: Proliferation of rat aorta media cell line A10; format: cell-based; conditions: 72 h, three days, read-out: VSMC proliferation - IC50 (μM), A10
Procedure: (§1) Human umbilical vein smooth muscle cells (HUVSMC), tissue explants from a neonate (HRI— passage 2), were seeded into 96 well plates at 1×10^3 cells per well, and allowed to attach for 24 hours. They were then washed twice and incubated in medium without FBS for 24-48 hours to serum-starve them. Test compounds were prepared in medium without FBS and added to the plates and incubated for one hour. Medium with FBS was added to give a final concentration of 10% and the plates incubated for 5 days until the controls were just confluent. Final analogue concentration was therefore either a series from 150 μM to 1.2 μM, or single concentrations of 10 μM. The difference in absorbance between treated cells and untreated cells was calculated using the formula, test/control*100, to obtain the percentage change caused by the test compound. As well, an IC50 for each compound was calculated.
(§2) The effect of test compounds a rat aortic smooth muscle cell line (A7r5) and another cell line from the media of rat aorta (A10) was examined. The methodology was the same as for HUVSMC, except that the cells were treated with compound for three days.

5-LO (LTB4 synthesis) = test: Synthesis of LTB4 and metabolites by neutrophils (lipoxygenase); format: cell-based; conditions: Neutrophil; calcium ionophore-stimulated human neutrophils
Procedure: The pathway for LTB4 synthesis involves initial release of AA from phospholipids by a Ca-dependent PLA2. The free AA is then oxygenated at by 5-LO (requiring enzyme activation by FLAP) to generate an epoxide intermediate (LTA4). LTA4 is then converted to LTB4 by LTA4 hydrolase. LTB4 is metabolised (and deactivated) by a cytochrome P-(CYP) 450 […] to produce 20-hydroxy and 20-carboxy metabolites. These metabolites are also measured in the HPLC assay.
Neutrophils were isolated from citrated human venous blood to >90% purity by centrifugation through Ficoll, dextran sedimentation and lysis of erythrocytes. Cells were washed in HEPES buffered Hanks solution (HBHS) and then suspended at 4.5 million cells/mL in HBHS containing 0.1% bovine serum albumin (HBHS+BSA).
Experiments had been carried out previously to optimise the stimulation of neutrophils by calcium ionophore. At 37° C., cells were incubated with the test compound in 10 μL DMSO for 5 min before addition of 100 μL of 25 ng/μL calcium ionophore (free acid form, Sigma) with 0.5% DMSO in HBHS+BSA. The cells were incubated for 10 min then pelleted by centrifugation at 4° C. for 5 min and the cell free supernatant used to quantitate the levels of LTB4 and its metabolites.
To each 900 μL aliquot of the supernatant, 25 μL of prostaglandin B2 (PGB2) 2.5 ng/μL in ethanol was added as internal standard. The solution was acidified to pH≦3 with 2M formic acid and the mixture extracted with 2 mL ethyl acetate and vigorous vortexing. The organic layer was collected and dried under nitrogen in a glass vial before reconstituted in 50 μL of the reconstitution solution (water:methanol:acetonitrile at 2:1:1).
Analysis was carried out using an HPLC system with a 125-4 LiChrospher®100 RP-18 (5 μm) column (Agilent Technologies) and a gradient system adapted from a published method to separate LTB4, its oxidation products 20-hydroxy LTB4 (20-OH-LTB4) and 20-carboxy LTB4 (20-COOH-LTB4), as well as PGB2. At 1 ml/min flow rate, a combination of three different mobile phase solutions was used:
A (water:methanol:acetonitrile:trifluoroacetic acid at 80:40:40:0.1, pH=3 with Et3N), B (methanol:acetonitrile at 1:1), and C (methanol).
UV absorbance was monitored at 270 nm, and LTB4 and its metabolites were quantitated by comparison of peak areas with that of internal standard and a standard curve prepared earlier.

A7r5 = test: Proliferation of rat aortic smooth muscle cell line A7r5; format: cell-based; conditions: A7R5, 72 h, three days, read-out: VSMC proliferation - IC50 (μM), A7r5
Procedure: as §1, §2

eNOS = eNOS mRNA expression in HAECs (real-time PCR); format: cell-based, human; conditions: 10 μM; for increase of eNOS mRNA over vehicle control (average): two more assays
Procedure: HAECs were grown as described above.

E-selectin = test: TNFα-induced E-selectin expression on HAECs (ELISA); format: cell-based, human; conditions: 10 μM
Procedure: Inhibition of TNFα-stimulated endothelial cell activation by compounds was assessed by measuring surface expression of cell adhesion molecules with an ELISA. Human arterial endothelial cells (HAECs) in growth medium (Cell Applications Inc.) were seeded into 96-well plates at a density of 10,000 cells per well. Plates were incubated overnight at 37° C. in a humidified incubator to allow for cells to become confluent. On the morning of the experiment, TNFα (10 μl, 2 ng/ml) was added to each well, which contained 100 μl of medium. Compounds were diluted in DMSO-containing medium (2.5% DMSO) to give a compound concentration of 100 and 300 μM. Compounds were added to wells so that final concentrations were 10 and 30 μM. DMSO-containing medium alone was added to zero concentration control wells. All samples were measured in quadruplicate (4 wells per treatment).
After incubation with compound for 4 hours, medium was removed and cells were probed with either non-specific IgG or specific mouse antibodies against VCAM, ICAM or E-selectin (BD Biosciences—0.1 μg in 100 μL buffered saline with 10% heat-inactivated human serum). Adhesion molecule expression was detected by addition of sheep anti-mouse antibody/horseradish peroxidase conjugate. […] Optical density was measured at 405 nm with an ELISA reader (Titertek Multiscan, Flow Laboratories).

THP-1 cell viability = format: cell-based; conditions: human, THP-1 cells, read-out: reduction of viability of the THP-1 cells
Procedure: MTT is bioreduced by viable cells into a coloured formazan product that is soluble in DMSO. Thus the quantity of formazan product is directly proportional to the number of living cells in culture, and can be measured using a spectrophotometer at 570 nm. These compounds reduce MTT in the absence of cells, resulting in a change in substrate colour from yellow to purple. This activity is dependent on the reducing power of each compound and was measured at 5 concentrations (data not shown). The ability of compounds to reduce MTT was not related to their ability to inhibit NFkB-activity.

Structure (SMILES) | IC50 (A10) | IC50 (5-LO (LTB4 synthesis)) | IC50 (A7r5) | expression of eNOS (eNOS; 24 hrs, HAECs) | increase of eNOS mRNA over vehicle control (average) (eNOS) | TNFα-induced E-selectin expression (E-selectin) | cytotoxicity at 30 μM (THP-1 cell viability)
Cc1c(O)ccc2c1OCC(c1cccc(O)c1)=C2 [Cpd. 14, 3′,7-Dihydroxy-8-methylisoflav-3-ene] | 10 µM | < 0.1 µM | 33 µM | significantly increased | 86% |  | 
COc1ccc(C2=Cc3ccc(O)cc3OC2)cc1OC [Cpd. 18, 7-Hydroxy-3′,4′-dimethoxyisoflav-3-ene] |  | 0.5 µM | 74 µM |  | 62% | inhibited | 
Oc1ccc(C2=Cc3ccc(O)c(Br)c3OC2)cc1 [Cpd. 20, 4′,7-Dihydroxy-8-bromoisoflav-3-ene] |  | 0.9 µM | 33 µM |  |  | inhibited | 
COc1ccc(C2=Cc3ccc(O)c(C)c3OC2)cc1OC [Cpd. 19, 7-Hydroxy-3′,4′-dimethoxy-8-methylisoflav-3-ene] |  | 0.3 µM |  |  |  |  | 
COc1cccc(C2=Cc3ccc(O)cc3OC2)c1 [Cpd. 16, 7-Hydroxy-3′-methoxyisoflav-3-ene] | 31 µM | 2.2 µM | 48 µM |  |  |  | ~10%
Oc1ccc2c(c1)OCC(c1ccc(Br)cc1)=C2 [Cpd. 21, 4′-Bromo-7-hydroxyisoflav-3-ene] |  |  |  |  |  |  | ~10%
